Test results published in ChEMBL document CHEMBL1147342, “Isolation and structure of the marine sponge cell growth inhibitory cyclic peptide phakellistatin 1” (1993).
In brackets after ≈: the same amount, converted by molar mass. Peptide text beside a SMILES is read from it.

Test system: P388
Experiment: Cytotoxicity against mouse P388 cells
Type: functional
Details: read-out: ED50 (the source's name)

SMILES: CC[C@H](C)[C@@H]1NC(=O)[C@@H]2CCCN2C(=O)[C@H]([C@@H](C)CC)NC(=O)[C@@H]2CCCN2C(=O)[C@H](Cc2ccc(O)cc2)NC(=O)[C@@H]2CCCN2C(=O)[C@H](Cc2ccccc2)NC1=O [PHAKELLISTATIN 1] (cyclo(FPYPIPI))
- EC50: 7.5 µg/mL (≈ 9.06 µM)
